Results as given in patent US20260200982A1, “HER RECEPTOR DERIVED PEPTIDES AND METHODS OF USE THEREOF” (Ramot at Tel-Aviv University Ltd., priority 2022, published 2026).
Values belong to the compound of their own block, whether it stands above or below them. Where a SMILES comes first, the peptide text is derived from it. Bridges are numbered along the chain shown (N, C = ends). [ ]: non-standard residue; d: D form. The star is where a group is joined. Myristoyl = CCCCCCCCCCCCCC(=O)*; S5 = C=CCCC[C@](C)(N)C(=O)O

Legend:
[1] = system: non-cancerous (MCF10A) breast cell line; assay: Methylene blue viability assay, MCF10A; format: cell-based, human
Description: (§1) Cell lines—Human breast cancer cell lines SKBR3 [Peles E et al. EMBO J. (1993) 12(3):961-71] and MCF7 [Faigenbloom L et al., Mol Syst Biol. (2015) 11(12):845] and human glioblastoma U87 [Goldberg L et al. Cancer Res. (2006) 66(24):11709-17] cell line, as well as Rat-1 fibroblast cells and H-Ras-transformed Rat-1 cells (EJ cells) [Marom M et al. J Biol Chem. (1995) 270(38):22263-70] and human Panc-1 and MIA PaCa-2 pancreatic cell lines (Rak R et al. Oncoscience. 2014 1(1):39-48; Weisz B et al. Oncogene (1999) 18, 2579±2588) were all grown in Dulbecco's modified Eagle's medium (DMEM; Biological Industries, Beithaemek, Israel). Human colorectal cancer cell lines DLD-1 (ATTC Cat No. CCL-221), HCT-116 (ATTC Cat No. CCL-247) and LNCaP prostate cancer cells were grown in Roswell Park Memorial Institute 1640 (RPMI 1640) medium and McCoy's 5A media, respectively (Sigma-Aldrich). All media were supplemented with antibiotics and 10% heat-inactivated fetal bovine serum (FBS; Gibco). Human breast cell line MCF10A [Bott A et al. Oncotarget. (2017) 8(27):43897-43914] was grown in Dulbeco's Modified Eagle's Medium/Nutrient Mixture F-12 HAM medium (DMEM F-12 HAM; Sigma-Aldrich), supplemented with antibiotics, 5% inactivated horse serum (HS; Invitrogen), 2 mM L-glutamine (Biological Industries, Beithaemek, Israel), 0.1 μg/ml cholera toxin (Sigma-Aldrich), 0.5 μg/ml hydrocortisone (Sigma-Aldrich), 10 μg/ml insulin (Biological Industries, Beithaemek, Israel) and 2 ng/ml EGF (R&D Systems). Cells were incubated at 37° C. in 5% CO2 in air, and the medium was changed every 3-4 days. Cells were passaged in trypsin/disodium ethylenediaminetetraacetic acid (Biological Industries, Beithaemek, Israel) when confluency reached 70%. One day prior to treatment the cells were plated at ~50% confluency in a medium supplemented with 10% FBS or 5% HS, accordingly.
(§2) Methylene blue viability assay—Cells were plated in 96-wells plates at cell densities of 1.5×10^3 (EJ, DLD-1), 3×10^3 (Rat-1, HCT-116, U87), 5×10^3 (SKBR3, MCF7) and 6×10^3 (MCF10A) cells/well. On the following day, cells were treated as indicated, and grown for 72 hours. Cell number determination was performed as described previously. IC-50 values were calculated using a non-linear regression model (logarithmic inhibitor vs. normalized response-variable slope) with the GraphPad Prism 6 software.

[2] = system: SKBR3 breast cancer cells; format: cell-based, human
Description: as §1
as §2, with “On the following day, cells were treated as indicated, and grown for 72 hours.” left out

MCF7 breast cancer cells = format: cell-based, human
Description: as §1
as §2, with “On the following day, cells were treated as indicated, and grown for 72 hours.” left out

[3] = system: Panc-1 pancreatic cancer cells; format: cell-based, human; settings: 72 h
Description: as §1, §2

DLD-1 colon cancer cells = format: cell-based, human
Description: as §1, §2

[4] = system: HCT-116 colon cancer cells; format: cell-based, human
Description: as §1, §2

U87 glioma cells = format: cell-based, human; settings: 72 h
Description: as §1, §2

[5] = system: H-Ras-transformed Rat-1 cells (EJ cells); format: cell-based
Description: Cell lines—Human breast cancer cell lines SKBR3 [Peles E et al. EMBO J. (1993) 12(3):961-71] and MCF7 [Faigenbloom L et al., Mol Syst Biol. (2015) 11(12):845] and human glioblastoma U87 [Goldberg L et al. Cancer Res. (2006) 66(24):11709-17] cell line, as well as Rat-1 fibroblast cells and H-Ras-transformed Rat-1 cells (EJ cells) [Marom M et al. J Biol Chem. (1995) 270(38):22263-70] and human Panc-1 and MIA PaCa-2 pancreatic cell lines (Rak R et al. Oncoscience. 2014 1(1):39-48; Weisz B et al. Oncogene (1999) 18, 2579±2588) were all grown in Dulbecco's modified Eagle's medium (DMEM; Biological Industries, Beithaemek, Israel). Human colorectal cancer cell lines DLD-1 (ATTC Cat No. CCL-221), HCT-116 (ATTC Cat No. CCL-247) and LNCaP prostate cancer cells were grown in Roswell Park Memorial Institute 1640 (RPMI 1640) medium and McCoy's 5A media, respectively (Sigma-Aldrich). All media were supplemented with antibiotics and 10% heat-inactivated fetal bovine serum (FBS; Gibco). Human breast cell line MCF10A [Bott A et al. Oncotarget. […]
as §2, with “On the following day, cells were treated as indicated, and grown for 72 hours. Cell number determination was performed as described previously.” left out

[6] = target: T1, ErbB2-nucleolin complexes (Homo sapiens, UniProt P19338); assay: Proximity Ligation Assay (PLA); format: cell-based; settings: SKBR3 cells, 53 μM, 48 hours, FIG. 3A
T1 construct: endogenous in cells; host or cells: SKBR3
Experimental: Proximity Ligation Assay (PLA)—For proximity ligation assay (PLA) cells were plated in a 16-wells Nunc Lab-Tek glass Chamber Slide System (178599; Thermo Scientific) at a density of 3.5×10^3 cells/well. 2 hours post-seeding the cells were treated with 53 μM of either TAT peptide (SEQ ID NO: 2) or TAT-NLS peptide (SEQ ID NO: 3) and grown for 48 hours. Following fixation, cells were incubated with rabbit anti-ErbB2 and mouse anti-nucleolin antibodies. PLA was performed using the Duolink In-Situ PLA probes: anti-rabbit MINUS and anti-mouse PLUS, and the Duolink In-Situ Detection Reagents Red kit (DUO92005; DUO92001; DUO92008, respectively; Sigma-Aldrich), according to the manufacturer's instructions. Nuclei were stained using the Duolink In-Situ Mounting Medium with DAPI (DUO82040; Sigma-Aldrich). Slides were visualized 24 hours post-staining and images were obtained using an Olympus motorized inverted research microscope Model IX81 (60× magnification). Signal intensity was determined using ImageJ software.

EGFR (ErbB1) = assay: Immunoblotting of cell lysates, EGFR phosphorylation; format: cell-based, human; settings: SKBR3, DLD-1 and HCT116; 50 μM, 24 hours; FIG. 3B
Experimental: (§3) Lysate preparation and immunoblotting—Cells were seeded at cell densities of 1.5×10^5 (DLD-1), 1.8×10^5 (HCT-116) and 2.5×10^5 (SKBR3) cells/well, treated as indicated and grown for 24 hours. Following, cells were lysed in solubilization buffer; the lysates were cleared by centrifugation and a boiling gel sample buffer was added. Proteins were resolved by SDS-polyacrylamide gel electrophoresis through 10% polyacrylamide gels, and were electrophoretically transferred to nitrocellulose membranes. Membranes were blocked in TBST buffer containing 6% milk, and blotted with primary antibodies. Following, a secondary antibody linked to horseradish peroxidase was added. Immunoreactive bands were detected with the enhanced chemiluminescence reagent Immobilon Crescendo Western HRP substrate (WBLUR0100; Merck Millipore).

ErbB2 = assay: Immunoblotting of cell lysates, ErbB2 phosphorylation; format: cell-based, human; settings: SKBR3, DLD-1 and HCT116; 50 μM, 24 hours; FIG. 3B
Experimental: as §3

DLD-1 cells = assay: Colony formation assay, DLD-1; format: cell-based, human; settings: 20 μM, 72 hours, FIG. 12
Experimental: Colony formation assay—Cells were plated onto 12-well plate (6×10^4 cells/well) and treated with either PBS or myr-NLS at the IC50 concentration for 3 days. Cells were collected and replated in 10-cm plates (at 3 dilutions of 1:10, 1:20 and 1:40). After 7-14 days when visible and yet separated colonies were formed, the cells were fixed with 0.1% acetic acid in PBS, and stained with 0.4% crystal violet in 0.1% acetic acid. Total colonies area was calculated using the ImageJ program.
In addition, a colony formation assay was conducted to further examine the anti-tumor effect of the myr-NLS (SEQ ID NO: 5), myr-NLS2 (SEQ ID NO: 15) and myr-NLS4 (SEQ ID NO: 17) peptides. To this end, DLD-1 cells were treated or untreated for 72 hours with 20 μM of the myr-peptides. Cells were then seeded at the same dilutions in new plates until colonies were formed.

[7] = system: DLD-1 colon cancer tumor xenografts; assay: Colon Tumor Growth in Nude Mice; format: in vivo; settings: DLD-1 xenografts, 25 μg/100 μl PBS intraperitoneal daily, FIGS. 14A-C
Experimental: Colon Tumor Growth in Nude Mice—Nude CD1-Nu mice (25-30 g) housed in barrier facilities on a 12-h light/dark cycle one week prior to the injection of tumor cells (day zero). On day zero, 5×10^6 DLD-1 cells were implanted subcutaneously just above the right femoral joint. Tumor size was measured every 3-4 days. When the tumors were apparently seen, the animals were divided randomly into three groups of mice [control vehicle treated, myr-NLS1 (SEQ ID NO: 5), myr-NLS4 (SEQ ID NO: 17)]. Treatment was performed by intraperitoneal injection of 25 μg in 100 μl PBS every day. Mice were weighed and tumors size was measured 3 times a week. At the end of the experiment, the mice were sacrificed, and the tumors were dissected and used for further analysis.

[8] = 72 hours, 10 μM peptide, FIGS. 6A-B
[9] = 30 μM peptide for 48 hours, FIG. 5A

T1 sequence (P19338 2-710 limits assumed, one chain of several): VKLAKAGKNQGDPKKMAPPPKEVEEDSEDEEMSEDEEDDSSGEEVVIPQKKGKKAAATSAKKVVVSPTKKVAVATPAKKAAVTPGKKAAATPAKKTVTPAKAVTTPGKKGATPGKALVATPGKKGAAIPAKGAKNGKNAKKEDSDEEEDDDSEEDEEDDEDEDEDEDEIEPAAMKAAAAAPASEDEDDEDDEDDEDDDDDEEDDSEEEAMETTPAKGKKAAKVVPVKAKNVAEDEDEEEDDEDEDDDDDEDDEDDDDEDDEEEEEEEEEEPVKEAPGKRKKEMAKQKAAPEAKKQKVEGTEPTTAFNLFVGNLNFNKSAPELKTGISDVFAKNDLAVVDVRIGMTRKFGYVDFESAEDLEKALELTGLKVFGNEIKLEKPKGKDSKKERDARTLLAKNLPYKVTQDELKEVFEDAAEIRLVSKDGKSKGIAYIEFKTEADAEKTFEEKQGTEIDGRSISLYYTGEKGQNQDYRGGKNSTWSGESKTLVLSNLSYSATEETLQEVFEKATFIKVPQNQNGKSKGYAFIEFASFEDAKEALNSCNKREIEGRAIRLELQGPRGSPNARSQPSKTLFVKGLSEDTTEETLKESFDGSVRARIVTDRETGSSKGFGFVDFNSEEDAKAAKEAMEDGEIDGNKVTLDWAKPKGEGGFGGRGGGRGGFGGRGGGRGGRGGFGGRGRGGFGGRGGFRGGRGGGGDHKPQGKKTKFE

IC50 ([2]; 72 h): 18.9 µM
IC50 (MCF7 breast cancer cells): 9.7 µM
IC50 [3]: 7.6 µM
IC50 (DLD-1 colon cancer cells; 72 h): 9.4 µM
IC50 ([4]; 72 h): 13.3 µM
IC50 (U87 glioma cells): 15.9 µM
IC50 [5]: 11.6 µM
Compound: CCCCCCCCCCCCCC(=O)N[C@@H](CCCNC(=N)N)C(=O)N[C@@H](CCCNC(=N)N)C(=O)N[C@@H](CCCNC(=N)N)C(=O)N[C@@H](Cc1c[nH]cn1)C(=O)N[C@H](C(=O)N[C@@]1(C)CCCC=CCCC[C@@](C)(C(=O)N[C@@H](CC(C)C)C(=O)N[C@@H](CCCNC(=N)N)C(=O)N[C@@H](CCCNC(=N)N)C(=O)N[C@@H](CC(C)C)C(=O)N[C@@H](CC(C)C)C(=O)O)NC(=O)[C@H](CCCNC(=N)N)NC(=O)[C@H](CCCCN)NC(=O)[C@H](CCCNC(=N)N)NC1=O)[C@@H](C)CC [mN6-10, Myr-RRRHI(S5)RKR(S5)LRRLL] (Myristoyl-RRRHI[S5]RKR[S5]LRRLL-OH; staple 6-10; C-terminus assumed)
viability of non-cancerous MCF10 breast cells [1, 8]: had no effect
viability of SKBR3 breast cancer cells [2, 9]: even more efficient than the myr-NLS peptide
viability of MCF7 breast cancer cells (MCF7 breast cancer cells; [9]): even more efficient than the myr-NLS peptide
MCF7 cell viability (MCF7 breast cancer cells; [8]): decreased MCF7 cell viability

Compound: GRKKRRQRRRPPQRRRHIVRKRTLRRLL [TAT-NLS]
interaction between the ErbB2 receptor and nucleolin (PLA) [6]: reduced the interaction
interaction between the ErbB2 receptor and nucleolin (PLA) ([6]; listed as TAL-NLS): disrupts the ErbB-nucleolin interaction
viability of the non-cancerous cells MCF10 ([1]; FIGS. 2A-C): not affecting viability
cell growth of SKBR3 breast cancer cells ([2]; 72 hours, FIGS. 2A-C): inhibited cell growth
IC50 on cell viability ([2]; SKBR, 72 hours, FIG. 2C): 83.1 µM
cell growth of MCF7 breast cancer cells (MCF7 breast cancer cells; 72 hours, FIGS. 2A-C): inhibited cell growth
IC50 on cell viability (MCF7 breast cancer cells; MCF7, 72 hours, FIG. 2C): 49.5 µM
cell growth of DLD-1 colon cancer cells (DLD-1 colon cancer cells; 72 hours, FIGS. 2A-C): inhibited cell growth
IC50 on cell viability (DLD-1 colon cancer cells; DLD-1, 72 hours, FIG. 2C): 40.2 µM
cell growth of HCT-116 colon cancer cells ([4]; 72 hours, FIGS. 2A-C): inhibited cell growth
IC50 on cell viability ([4]; HCT116, 72 hours, FIG. 2C): 27.7 µM
ErbB1 phosphorylation (EGFR (ErbB1)): inhibited
ErbB2 phosphorylation (ErbB2): inhibited

Compound: Myr-KRRQQKIRKYTMRRLL-OH (Myristoyl-KRRQQKIRKYTMRRLL-OH; SMILES CCCCCCCCCCCCCC(=O)N[C@@H](CCCCN)C(=O)N[C@@H](CCCNC(=N)N)C(=O)N[C@@H](CCCNC(=N)N)C(=O)N[C@@H](CCC(N)=O)C(=O)N[C@@H](CCC(N)=O)C(=O)N[C@@H](CCCCN)C(=O)N[C@H](C(=O)N[C@@H](CCCNC(=N)N)C(=O)N[C@@H](CCCCN)C(=O)N[C@@H](Cc1ccc(O)cc1)C(=O)N[C@H](C(=O)N[C@@H](CCSC)C(=O)N[C@@H](CCCNC(=N)N)C(=O)N[C@@H](CCCNC(=N)N)C(=O)N[C@@H](CC(C)C)C(=O)N[C@@H](CC(C)C)C(=O)O)[C@@H](C)O)[C@@H](C)CC) [myr-NLS2]
colony formation (total colonies area) (DLD-1 cells): fewer and smaller colonies

Compound: Myr-RRKSIKKKRALRRFL-OH (Myristoyl-RRKSIKKKRALRRFL-OH; SMILES CCCCCCCCCCCCCC(=O)N[C@@H](CCCNC(=N)N)C(=O)N[C@@H](CCCNC(=N)N)C(=O)N[C@@H](CCCCN)C(=O)N[C@@H](CO)C(=O)N[C@H](C(=O)N[C@@H](CCCCN)C(=O)N[C@@H](CCCCN)C(=O)N[C@@H](CCCCN)C(=O)N[C@@H](CCCNC(=N)N)C(=O)N[C@@H](C)C(=O)N[C@@H](CC(C)C)C(=O)N[C@@H](CCCNC(=N)N)C(=O)N[C@@H](CCCNC(=N)N)C(=O)N[C@@H](Cc1ccccc1)C(=O)N[C@@H](CC(C)C)C(=O)O)[C@@H](C)CC) [myr-NLS4]
tumor growth (tumor size, tumor weight) [7]: significantly reduced tumor cell growth
colony formation (total colonies area) (DLD-1 cells): fewer and smaller colonies
